{"source": "patent US6288051A", "about": "“7 α-(5-methylaminopentyl)-estratrienes, process for their production, pharmaceutical preparations that contain these 7 α(5-methylaminopentyl)-estratrienes as well as their use for the production of pharmaceutical agents” (Schering Aktiengesellschaft, priority 1996, dated 2001)", "key": {"[1]": {"tested_on": "uterus growth (estradiol benzoate)", "test": "Uterus growth test in infantile rats (antiestrogenic action)", "type": "in vivo, rat", "conditions": "differences highly significant (FIG. 1 and 2)", "source_text": "1. Uterus growth test in infantile rats, s.c. and p.o. (test for antiestrogenic action)\n1. Uterus Growth Test in Infantile Rats (Antiestrogenic Action)\nIn rodents, the uterus reacts to the administration of estrogens with an increase in weight (both proliferation and water retention). This growth is to be inhibited in a dose-dependent-manner by simultaneous administration of compounds with an antiestrogenic action.\nInfantile female rats at a weight of 35-45 g at the beginning of the test, 5-6 animals per dose.\nFormulation and Administration of the Substances: […]\nBoth for s.c. and for p.o. administration, the substances are dissolved in 1 part of ethanol (E) and made up with 9 parts of peanut oil (EO).\nYoung rats that have just been weaned from their mothers are delivered one day before the beginning of treatment for acclimatization and are immediately supplied with food--still in the animal cage. […] The wet weights (without contents) are determined from the prepared uteri. […]\nFor each group, the average values with standard deviation (X+SD), as well as the significance of the differences compared to the control group (EB) in the Dunnett Test (p<0.05), are determined from the relative organ weights (mg/100 g of body weight). […] The relative effects of the test substances are determined by covariance and regression analysis."}, "MXT breast neoplasm": {"tested_on": "MXT breast neoplasm", "test": "Tumor-inhibiting effect on hormone-dependent MXT(+) breast cancer in mice", "type": "in vivo, mouse", "conditions": "oral", "source_text": "2.1 MXT breast neoplasm in mice 2.1. Tumor-Inhibiting Effect on Hormone-Dependent […] Cancer in Mice Principle of the Method The MXT(+)-breast cancer is an estrogen- and progesterone receptor-positivetumor that was originally produced by induction with urethane and is then transplanted onward in series. Growth can be inhibited by ovariectomy and antiestrogens. This model is therefore very well suited for studying the tumor-inhibiting action of endocrinotherapeutic agents. Execution of the Test Animal Material Adult, female BDFI-mice (7-10 weeks old; weight 18-21 g). Standard care conditions. Formulation and Administration of Test Substances The test substances are dissolved in ethanol+peanut oil (1+9), and the one-time dose is administered at a volume of 0.1 ml s.c. In the case of oral administration, the test substance is dissolved in ethanol+peanut oil (1+9), and the daily dose is administered at a volume of 0.1 ml. The treatment begins either immediately after tumor implantation or 2-3 weeks thereafter (treatment of established tumors). […] Tumor growth is determined by ascertaining the tumor surface area with the aid of a sliding gauge. The tumor surface area is calculated from the product of the longest diameter and the tumor diameter that is perpendicular to said longest diameter. […] Analysis Average values ±SE of tumor surface areas are determined. […]"}}}
{"smiles": "CN(CCCCC[C@@H]1Cc2cc(O)ccc2[C@H]2CC[C@]3(C)[C@@H](O)CC[C@H]3[C@H]12)CCCSCCCC(F)(F)C(F)(F)F", "note": "[Example 1, 7α-{5-[N-Methyl-N-3-(4,4,5,5,5-pentafluoropentylthio)-propylamino]-pentyl}-estra-1,3,5(10)-triene-3,17β-diol]", "values": [{"measurement": "relative antiestrogenic activity vs 7α-[9-(4,4,5,5,5-pentafluoropentanesulfinyl)-nonyl]-estra-1,3,5(10)-triene-3,17β-diol", "setting": "[1]; oral administration", "value": 4.7, "unit": "times"}, {"measurement": "relative antiestrogenic activity vs 7α-[9-(4,4,5,5,5-pentafluoropentanesulfinyl)-nonyl]-estra-1,3,5(10)-triene-3,17β-diol", "setting": "[1]; subcutaneous administration", "value": 5.4, "unit": "times"}, {"measurement": "inhibition of tumor growth", "setting": "MXT breast neoplasm; 14 days of treatment, 10 mg/kg/day (FIG. 3)", "value": "inhibits tumor growth as strongly as an ovariectomy"}, {"measurement": "activity compared to 7α-[9-(4,4,5,5,5-pentafluoropentanesulfinyl)-nonyl]-estra-1,3,5(10)-triene-3,17β-diol", "setting": "MXT breast neoplasm; MXT, 14 days, 10 mg/kg/day", "value": "more strongly active"}]}
